Calls of active or inactive are those of the source. The calls are words filed in the database; no cut-off is given here.
Assays:
Acanthamoeba hatchetti [1] = assay: Amoebicidal activity against Trophozoites of Acanthamoeba hatchetti 11DS assessed as log reduction in cell count at 10 mM in phosphate buffered saline at pH 5 after 24 hrs by hemocytometer using trypan blue stain; type: functional, organism-based
Acanthamoeba hatchetti [2] = assay: Amoebicidal activity against Trophozoites of Acanthamoeba hatchetti 11DS assessed as killing time at 0.16 M in peptone yeast extract glucose medium at pH 7 by hemocytometer using trypan blue stain; type: functional
Acanthamoeba polyphaga [3] = assay: Amoebicidal activity against Trophozoites of Acanthamoeba polyphaga 5SU assessed as killing time at 0.16 M in peptone yeast extract glucose medium at pH 7 by hemocytometer using trypan blue stain; type: functional
Acanthamoeba polyphaga [4] = assay: Amoebicidal activity against Trophozoites of Acanthamoeba polyphaga 5SU assessed as log reduction in cell count at 10 mM in phosphate buffered saline at pH 5 after 6 hrs by hemocytometer using trypan blue stain; type: functional, organism-based
Acanthamoeba hatchetti [5] = assay: Amoebicidal activity against Trophozoites of Acanthamoeba hatchetti 11DS assessed as log reduction in cell count at 10 mM in phosphate buffered saline at pH 5 within 1 hr by hemocytometer using trypan blue stain in presence of 290 mM ammonium chloride; type: functional
Acanthamoeba polyphaga [6] = assay: Amoebicidal activity against Trophozoites of Acanthamoeba polyphaga 5SU assessed as log reduction in cell count at 10 mM in phosphate buffered saline at pH 5 after 1 hr by hemocytometer using trypan blue stain in presence of 160 mM beta-alanine; type: functional, organism-based
Acanthamoeba polyphaga [7] = assay: Amoebicidal activity against Trophozoites of Acanthamoeba polyphaga 5SU assessed as killing time at 55 mM in phosphate buffered saline at pH 7 by hemocytometer using trypan blue stain; type: functional
Acanthamoeba hatchetti [8] = assay: Amoebicidal activity against Trophozoites of Acanthamoeba hatchetti 11DS assessed as rounding of the cells at 55 mM in phosphate buffered saline at pH 7 after 15 mins by hemocytometer using trypan blue stain; type: functional, organism-based
Acanthamoeba hatchetti [9] = assay: Amoebicidal activity against Trophozoites of Acanthamoeba hatchetti 11DS assessed as rounding of the cells at 55 mM in peptone yeast extract glucose medium at pH 7 after 30 mins by hemocytometer using trypan blue stain; type: functional, organism-based
Acanthamoeba hatchetti [10] = assay: Amoebicidal activity against Trophozoites of Acanthamoeba hatchetti 11DS assessed as reduction in cell count at 10 mM in phosphate buffered saline at pH 7 within 1 hr by hemocytometer using trypan blue stain in presence of 290 mM ammonium chloride; type: functional, organism-based
Acanthamoeba polyphaga [11] = assay: Amoebicidal activity against Trophozoites of Acanthamoeba polyphaga 5SU assessed as log reduction in cell count at 20 mM in peptone yeast extract glucose medium at pH 7 after 24 hrs by hemocytometer using trypan blue stain; type: functional
Acanthamoeba hatchetti [12] = assay: Amoebicidal activity against Trophozoites of Acanthamoeba hatchetti 11DS assessed as killing time at 20 mM in peptone yeast extract glucose medium at pH 7 by hemocytometer using trypan blue stain; type: functional
Acanthamoeba hatchetti [13] = assay: Amoebicidal activity against Trophozoites of Acanthamoeba hatchetti 11DS assessed as log reduction in cell count at 10 mM in phosphate buffered saline at pH 5 after 24 hrs by hemocytometer using trypan blue staining in presence of 160 mM mM beta-alanine; type: functional, organism-based
Acanthamoeba polyphaga [14] = assay: Amoebicidal activity against Trophozoites of Acanthamoeba polyphaga 5SU assessed as rounding of cells at 55 mM in phosphate buffered saline at pH 7 after 15 mins by hemocytometer using trypan blue stain; type: functional, organism-based
Acanthamoeba polyphaga [15] = assay: Amoebicidal activity against Trophozoites of Acanthamoeba polyphaga 5SU assessed as increase in reduction in cell count at 20 mM in peptone yeast extract glucose medium at pH 7 after 6 hrs by hemocytometer using trypan blue stain in presence of 68 mM ammonium chloride; type: functional, organism-based
Acanthamoeba hatchetti [16] = assay: Amoebicidal activity against Trophozoites of Acanthamoeba hatchetti 11DS in phosphate buffered saline at pH 7 after 1 hr by hemocytometer using trypan blue stain; type: functional, organism-based
Acanthamoeba hatchetti [17] = assay: Amoebicidal activity against Trophozoites of Acanthamoeba hatchetti 11DS in peptone yeast extract glucose medium at pH 7 after 1 hr by hemocytometer using trypan blue stain in presence of 68 mM ammonium chloride; type: functional, organism-based
Acanthamoeba polyphaga [18] = assay: Amoebicidal activity against Trophozoites of Acanthamoeba polyphaga 5SU in phosphate buffered saline at pH 7 after 1 hr by hemocytometer using trypan blue stain; type: functional, organism-based
Acanthamoeba polyphaga [19] = assay: Amoebicidal activity against Trophozoites of Acanthamoeba polyphaga 5SU in phosphate buffered saline at pH 7 after 1 hr by hemocytometer using trypan blue stain in presence of 34 mM ammonium chloride; type: functional, organism-based
Acanthamoeba polyphaga [20] = assay: Amoebicidal activity against Trophozoites of Acanthamoeba polyphaga 5SU in peptone yeast extract glucose medium at pH 7 after 1 hr by hemocytometer using trypan blue stain; type: functional, organism-based
Acanthamoeba hatchetti [21] = assay: Amoebicidal activity against Trophozoites of Acanthamoeba hatchetti 11DS in phosphate buffered saline at pH 7 after 6 hrs by hemocytometer using trypan blue stain; type: functional, organism-based
Acanthamoeba hatchetti [22] = assay: Amoebicidal activity against Trophozoites of Acanthamoeba hatchetti 11DS in phosphate buffered saline at pH 7 after 6 hrs by hemocytometer using trypan blue stain in presence of 34 mM ammonium chloride; type: functional, organism-based
Acanthamoeba polyphaga [23] = assay: Amoebicidal activity against Trophozoites of Acanthamoeba polyphaga 5SU in phosphate buffered saline at pH 7 after 6 hrs by hemocytometer using trypan blue stain; type: functional, organism-based
Acanthamoeba polyphaga [24] = assay: Amoebicidal activity against Trophozoites of Acanthamoeba polyphaga 5SU in phosphate buffered saline at pH 7 after 6 hrs by hemocytometer using trypan blue stain in presence of 34 mM ammonium chloride; type: functional, organism-based
Acanthamoeba hatchetti [25] = assay: Amoebicidal activity against Trophozoites of Acanthamoeba hatchetti 11DS in phosphate buffered saline at pH 7 after 24 hrs by hemocytometer using trypan blue stain; type: functional, organism-based
Acanthamoeba hatchetti [26] = assay: Amoebicidal activity against Trophozoites of Acanthamoeba hatchetti 11DS in phosphate buffered saline at pH 7 after 24 hrs by hemocytometer using trypan blue stain in presence of 34 mM ammonium chloride; type: functional, organism-based
Acanthamoeba polyphaga [27] = assay: Amoebicidal activity against Trophozoites of Acanthamoeba polyphaga 5SU in phosphate buffered saline at pH 7 after 24 hrs by hemocytometer using trypan blue stain; type: functional, organism-based
Acanthamoeba polyphaga [28] = assay: Amoebicidal activity against Trophozoites of Acanthamoeba polyphaga 5SU in phosphate buffered saline at pH 7 after 24 hrs by hemocytometer using trypan blue stain in presence of 34 mM ammonium chloride; type: functional, organism-based
Acanthamoeba castellanii [29] = assay: Amoebicidal activity against excysted trophozoites of Acanthamoeba castellanii 40AB at 55 mM in peptone yeast extract glucose medium after 24 hrs by hemocytometer using trypan blue stain; type: functional
Acanthamoeba hatchetti [30] = assay: Amoebicidal activity against excysted trophozoites of Acanthamoeba hatchetti 11DS at 55 mM in peptone yeast extract glucose medium after 6 days by hemocytometer using trypan blue stain; type: functional
Acanthamoeba polyphaga [31] = assay: Amoebicidal activity against excysted trophozoites of Acanthamoeba polyphaga 5SU at 55 mM in peptone yeast extract glucose medium after 6 days by hemocytometer using trypan blue stain; type: functional
Acanthamoeba castellanii [32] = assay: Amoebicidal activity against excysted trophozoites of Acanthamoeba castellanii 4CL at 55 mM in peptone yeast extract glucose medium after 11 days by hemocytometer using trypan blue stain; type: functional
Acanthamoeba hatchetti [33] = assay: Amoebicidal activity against Trophozoites of Acanthamoeba hatchetti 11DS assessed as log reduction in cell count at 10 mM in phosphate buffered saline at pH 7 after 6 hrs by hemocytometer using trypan blue stain; type: functional

O=S(=O)(O)CCNCl
Activity (Acanthamoeba hatchetti [1]): Active | Activity (Acanthamoeba hatchetti [2]): 1 h | Activity (Acanthamoeba polyphaga [3]): 30 min | Activity (Acanthamoeba polyphaga [4]): Active | Activity (Acanthamoeba hatchetti [5]): 2 | Activity (Acanthamoeba polyphaga [6]): Active | Activity (Acanthamoeba polyphaga [7]): 1 h | Activity (Acanthamoeba hatchetti [8]): Active | Activity (Acanthamoeba hatchetti [9]): Active | Activity (Acanthamoeba hatchetti [10]): Active | Activity (Acanthamoeba polyphaga [11]): 2 | Activity (Acanthamoeba hatchetti [12]): 36 h | Activity (Acanthamoeba hatchetti [13]): Active | Activity (Acanthamoeba polyphaga [14]): Active | Activity (Acanthamoeba polyphaga [15]): inactive | EC50 (Acanthamoeba hatchetti [16]): 15.5 mM | EC50 (Acanthamoeba hatchetti [17]): 13.9 mM | EC50 (Acanthamoeba polyphaga [18]): 29.3 mM | EC50 (Acanthamoeba polyphaga [19]): 5.31 mM | EC90 (Acanthamoeba polyphaga [19]): 9.5 mM | EC50 (Acanthamoeba polyphaga [20]): 23.1 mM | EC50 (Acanthamoeba hatchetti [21]): 3.89 mM | EC90 (Acanthamoeba hatchetti [21]): 7.71 mM | EC50 (Acanthamoeba hatchetti [22]): 5.19 mM | EC90 (Acanthamoeba hatchetti [22]): 9.13 mM | EC50 (Acanthamoeba polyphaga [23]): 4 mM | EC90 (Acanthamoeba polyphaga [23]): 7.95 mM | EC50 (Acanthamoeba polyphaga [24]): 5 mM | EC90 (Acanthamoeba polyphaga [24]): 9.08 mM | EC50 (Acanthamoeba hatchetti [25]): 3.65 mM | EC90 (Acanthamoeba hatchetti [25]): 7.56 mM | EC50 (Acanthamoeba hatchetti [26]): 5.11 mM | EC90 (Acanthamoeba hatchetti [26]): 9.13 mM | EC50 (Acanthamoeba polyphaga [27]): 3.47 mM | EC90 (Acanthamoeba polyphaga [27]): 7.38 mM | EC50 (Acanthamoeba polyphaga [28]): 4.96 mM | EC90 (Acanthamoeba polyphaga [28]): 9.03 mM | Activity (Acanthamoeba castellanii [29]): 0 | Activity (Acanthamoeba hatchetti [30]): 210000 | Activity (Acanthamoeba polyphaga [31]): 18000 | Activity (Acanthamoeba castellanii [32]): 100000 | Activity (Acanthamoeba hatchetti [33]): 2
